Results from patent publication US20240181022A1, “AMURINS LYSINS, AND LYSIN-ANTIMICROBIAL PEPTIDE (AMP) CONSTRUCTS ACTIVE AGAINST GRAM-NEGATIVE BACTERIA” (priority 2021, published 2024).
Values after ≈ are worked out from the molar mass of the structure shown. Read-outs that look alike come from different tables or passages of the source. Where a SMILES comes first, the peptide text is derived from it. Where no end group is shown, it is not given here. [ ]: non-standard residue; d: D form.

Assays:
A. xylosoxidans = assay type: cell-based, Achromobacter xylosoxidans; conditions: for MIC: A. xylosoxidans test organism of the sputum time-kill assay
Method: MIC values were determined using a modification of the standard broth microdilution reference method defined by the Clinical and Laboratory Standards Institute (CLSI), CLSL. 2015. Methods for Dilution Antimicrobial Susceptibility Tests for Bacteria That Grow Aerobically; Approved Standard-10th Edition. Clinical and Laboratory Standards Institute, Wayne, PA. The modification was based on the replacement of Mueller Hinton Broth with either CAA media (with and without NaCl) or CAA supplemented with 2.5% human serum. MIC is the minimum concentration of peptide sufficient to suppress at least 80% of the bacterial growth compared to control.
The MICs for were determined as described below using the broth microdilution method for meropenem, GN370, AM1, AM2, and AM3. The results are shown below in Tables 8-12.
The activity of GN370 and AM1 was evaluated against various bacterial isolates, including mucoid and α-hemolytic isolates of P. aeruginosa, MDR isolates, and carbapenem-resistant isolates.

S. maltophilia = assay: Time-kill assay in cystic fibrosis patient sputum, S. maltophilia; assay type: cell-based, Stenotrophomonas maltophilia; conditions: for effect of sputum on antibacterial activity: 10% CF sputum vs no sputum; for killing by 1 hour, maintained at 24 hours: time-kill
Description: Sputum from 5 cystic fibrosis patients was pooled. The resulting mixture was not filtered, as it was very dense and not amenable to sterilization by filtration. Sputum is known to be a complex mixture of DNA, carbohydrates, and lipids ([…], 2016). As used herein, the term “sputum” refers to the mucus present in the respiratory tract of an animal, such as a human. Sputum may increase in thickness due to the irritation or infection, including bacterial infection, and in some instances, may be expelled by the animal while coughing. In certain instances, cystic fibrosis may be characterized by the presence of a thick, sticky mucus or sputum present in the lungs of cystic fibrosis patients. The activity of GN370, AM1, AM2, AM3, and meropenem was determined in the sputum using a time-kill assay format as disclosed in Zhang et al., Antimicrobial peptide therapeutics for cystic fibrosis, Antimicrobial Agents Chemother. 2005; 49(7):2921-2927. […] Untreated controls were included in addition to pretreatment plating (t=0) for a baseline CFU determination. Activity was also determined in the absence of sputum for comparison to activity observed in the presence of sputum.

B. cenocepacia = assay: Checkerboard synergy assay with meropenem against B. cenocepacia; assay type: cell-based, Burkholderia cenocepacia; conditions: for MIC (dual agent): GN370 + meropenem
Description: In some embodiments, the Chp peptides disclosed herein or active fragments thereof reduce the minimum inhibitory concentration (MIC) of an antibiotic in the presence and/or absence of human serum, pulmonary surfactant, and/or sputum, including human sputum and human sputum from a cystic fibrosis patient. Any known method to assess MIC may be used. In some embodiments, a checkerboard assay is used to determine the effect of a Chp peptide or active fragment thereof on antibiotic concentration. The checkerboard assay is based on a modification of the CLSI method for MIC determination by broth microdilution (See Clinical and Laboratory Standards Institute (CLSI), CLSI. 2015. Methods for Dilution Antimicrobial Susceptibility Tests for Bacteria That Grow Aerobically; Approved Standard-10th Edition. Clinical and Laboratory Standards Institute, Wayne, PA, which is herein incorporated by reference in its entirety and Ceri et al. 1999. J. Clin. Microbiol. 37: 1771-1776, which is also herein incorporated by reference in its entirety).
Checkerboards are constructed by first preparing columns of e.g., a 96-well polypropylene microtiter plate, wherein each well has the same amount of antibiotic diluted 2-fold along the horizontal axis. […] The Chp peptide or active fragment thereof and antibiotic dilutions are then combined, so that each column has a constant amount of antibiotic and doubling dilutions of Chp peptide, while each row has a constant amount of Chp peptide and doubling dilutions of antibiotic. Each well thus has a unique combination of Chp peptide and antibiotic. Bacteria are added to the drug combinations at concentrations of 1×10^5 GFU/ml in CAA, for example, with or without human serum or pulmonary surfactant. […] Summation fractional inhibitory concentrations (ΣFICs) are calculated for each drug and the minimum ΣFIC value (ΣFICmin) is used to determine the effect of the Chp peptide/antibiotic combination.
The synergy of GN370 with meropenem was evaluated against 3 different strains of P. aeruginosa and three different strains of B. cenocepacia.

P. aeruginosa = assay: Checkerboard synergy assay (FICI) with antibiotics against P. aeruginosa; assay type: cell-based, Pseudomonas aeruginosa; conditions: for MIC (dual agent): GN370 + meropenem
Summary of the method: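 Checkerboard of 2-fold antibiotic dilutions crossed with GN370 (lysin peptide), bacteria at 1×10^5 CFU/ml in CAA, with or without human serum or pulmonary surfactant. ΣFICmin taken as FICI: ≤0.5 synergy, >0.5–≤1 additive, >1 indifferent.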

[1] = P. aeruginosa (ATCC 27853, CFS 1766)

| Compound | MIC50 (A. xylosoxidans; A. xylosoxidans isolates) | MIC90 (A. xylosoxidans; A. xylosoxidans isolates) | MIC (A. xylosoxidans) | effect of sputum on antibacterial activity (S. maltophilia) | Log10 CFU/mL of sputum (S. maltophilia; absence of sputum, 1 hr) | Log10 CFU/mL of sputum (S. maltophilia; absence of sputum, 3 hr) | Log10 CFU/mL of sputum (S. maltophilia; absence of sputum, 24 hr) | Log10 CFU/mL of sputum (S. maltophilia; presence of 10% sputum, 1 hr) | Log10 CFU/mL of sputum (S. maltophilia; presence of 10% sputum, 3 hr) | Log10 CFU/mL of sputum (S. maltophilia; presence of 10% sputum, 24 hr) | killing by 1 hour, maintained at 24 hours (S. maltophilia) | further results |
| --- | --- | --- | --- | --- | --- | --- | --- | --- | --- | --- | --- | --- |
| CC[C@H](C)[C@H](NC(=O)[C@@H](CCCNC(=N)N)NC(=O)[C@H](Cc1ccccc1)NC(=O)CNC(=O)CNC(=O)[C@@H](CCCNC(=N)N)NC(=O)[C@H](CCSC)NC(=O)[C@@H]1CCCN1C(=O)[C@@H](CCCNC(=N)N)NC(=O)[C@H](C)NC(=O)[C@@H](CCCNC(=N)N)NC(=O)[C@H](CC(C)C)NC(=O)[C@H](CC(N)=O)NC(=O)[C@@H](CCCNC(=N)N)NC(=O)[C@@H](CCCCN)NC(=O)[C@@H](CCCCN)NC(=O)[C@@H](NC(=O)[C@H](CC(N)=O)NC(=O)[C@@H](NC(=O)[C@H](C)NC(=O)CNC(=O)[C@@H](CCCNC(=N)N)NC(=O)[C@@H](NC(=O)[C@H](Cc1ccccc1)NC(=O)[C@@H](NC(=O)[C@@H](CCCCN)NC(=O)[C@@H](CCCNC(=N)N)NC(=O)[C@H](CO)NC(=O)[C@@H](CCCCN)NC(=O)[C@@H](CCCCN)NC(=O)[C@@H](CCCCN)NC(=O)[C@H](CO)NC(=O)[C@H](CC(C)C)NC(=O)[C@@H](CCCCN)NC(=O)[C@@H](CCCNC(=N)N)NC(=O)[C@@H](CCCNC(=N)N)NC(=O)[C@@H](CCCCN)NC(=O)[C@@H](N)CCSC)[C@@H](C)CC)[C@@H](C)O)C(C)C)C(C)C)C(=O)O [AM3] (H-M[dK][dR][dR][dK]LS[dK][dK][dK]S[dR][dK]IFT[dR]GAVNV[dK][dK][dR]NL[dR]A[dR]PM[dR]GGF[dR]I-OH; N-terminus and C-terminus assumed) | 2 µg/mL (≈ 0.438 µM) | 16 µg/mL (≈ 3.5 µM) | AM3 (MIC = 0.5) | none of GN370, AM1, AM2, and AM3 was inhibited | 2.3 Log10 CFU/mL of sputum | 2.3 Log10 CFU/mL of sputum | 2.3 Log10 CFU/mL of sputum | 2.3 Log10 CFU/mL of sputum | 2.3 Log10 CFU/mL of sputum | 2.3 Log10 CFU/mL of sputum | complete killing | – |
| C[C@@H](O)[C@H]1C(=O)N2C(C(=O)O)=C(S[C@@H]3CN[C@H](C(=O)N(C)C)C3)[C@H](C)[C@H]12 [meropenem, reference compound] | 4 µg/mL (≈ 10.4 µM) | > 32 µg/mL | Meropenem (MIC = 0.25) | – | 5.04 Log10 CFU/mL of sputum | 4.7 Log10 CFU/mL of sputum | 7.95 Log10 CFU/mL of sputum | 3.78 Log10 CFU/mL of sputum | 4.26 Log10 CFU/mL of sputum | 6.3 Log10 CFU/mL of sputum | – | MIC (alone) (B. cenocepacia; B. cenocepacia (CFS 2135)): 32 µg/mL; MIC (dual agent) (B. cenocepacia; B. cenocepacia (CFS 2135)): 32 µg/mL; MIC (alone) (B. cenocepacia; B. cenocepacia (CFS 2138)): 64 µg/mL; MIC (dual agent) (B. cenocepacia; B. cenocepacia (CFS 2138)): 64 µg/mL; MIC (alone) (B. cenocepacia; B. cenocepacia (CFS 2142)): 64 µg/mL; MIC (dual agent) (B. cenocepacia; B. cenocepacia (CFS 2142)): 32 µg/mL; MIC (alone) (P. aeruginosa; [1]): 8 µg/mL; MIC (dual agent) (P. aeruginosa; [1]): 0.25 µg/mL; MIC (alone) (P. aeruginosa; P. aeruginosa (CFS 2045)): 32 µg/mL; MIC (dual agent) (P. aeruginosa; P. aeruginosa (CFS 2045)): 4 µg/mL; MIC (alone) (P. aeruginosa; P. aeruginosa (CFS 2061)): 64 µg/mL; MIC (dual agent) (P. aeruginosa; P. aeruginosa (CFS 2061)): 4 µg/mL; FICI of the antibiotic with GN370 (P. aeruginosa; P. aeruginosa ATCC 27853, checkerboard): 0.375; Antibiotic MIC (single agent) (P. aeruginosa; P. aeruginosa strain AR-769): 64 µg/mL; Antibiotic FIC (P. aeruginosa; P. aeruginosa strain AR-769, in combination with GN370): 0.125; Antibiotic MIC (combo) (P. aeruginosa; P. aeruginosa strain AR-769, in combination with GN370, in µg/mL): 8; activity in the presence and absence of sputum (S. maltophilia): poorly active |
| MRLKMARRRYRLPRRRSRRLFSRTALRMHPRNRLRRIMRGGIRF [AM1] | 0.5 µg/mL | 2 µg/mL | AM1 (MIC = 0.5) | none of GN370, AM1, AM2, and AM3 was inhibited | 2.3 Log10 CFU/mL of sputum | 2.3 Log10 CFU/mL of sputum | 2.3 Log10 CFU/mL of sputum | 2.3 Log10 CFU/mL of sputum | 2.3 Log10 CFU/mL of sputum | 2.3 Log10 CFU/mL of sputum | complete killing | AM1 MIC50 (A. xylosoxidans): 0.5 µg/mL; AM1 MIC90 (A. xylosoxidans): 1 µg/mL; MIC50 (A. xylosoxidans): 1 µg/mL; MIC90 (A. xylosoxidans): 4 µg/mL; MIC Range (A. xylosoxidans; A. xylosoxidans isolates, in µg/mL): 0.016-4; MIC Range (A. xylosoxidans; MDR A. xylosoxidans isolates (n = 14), in µg/mL): 0.5-4; AM1 MIC Range (A. xylosoxidans; carbapenem-resistant A. xylosoxidans isolates (n = 7), in µg/mL): 0.06225-1 |
| M[dR]L[dK]MA[dR][dR][dR]Y[dR]LP[dR][dR][dR]S[dR][dR]LFS[dR]TAL[dR]MHP[dR]N[dR]L[dR][dR]IM[dR]GGI[dR]F [AM2] | 2 µg/mL | 64 µg/mL | AM2 (MIC = 1) | none of GN370, AM1, AM2, and AM3 was inhibited | 2.3 Log10 CFU/mL of sputum | 2.3 Log10 CFU/mL of sputum | 2.3 Log10 CFU/mL of sputum | 2.3 Log10 CFU/mL of sputum | 2.3 Log10 CFU/mL of sputum | 2.3 Log10 CFU/mL of sputum | complete killing | – |
